Measurements as given in patent publication US20120238549A1, “Nuclear Hormone Receptor Modulators” (ABBOTT LABORATORIES, priority 2011, published 2012).

Molecular target: T1, Glucocorticoid Receptor (GR) (Homo sapiens, UniProt P04150)
T1 construct: purchased Invitrogen P2893
T1 sequence (P04150 1-777): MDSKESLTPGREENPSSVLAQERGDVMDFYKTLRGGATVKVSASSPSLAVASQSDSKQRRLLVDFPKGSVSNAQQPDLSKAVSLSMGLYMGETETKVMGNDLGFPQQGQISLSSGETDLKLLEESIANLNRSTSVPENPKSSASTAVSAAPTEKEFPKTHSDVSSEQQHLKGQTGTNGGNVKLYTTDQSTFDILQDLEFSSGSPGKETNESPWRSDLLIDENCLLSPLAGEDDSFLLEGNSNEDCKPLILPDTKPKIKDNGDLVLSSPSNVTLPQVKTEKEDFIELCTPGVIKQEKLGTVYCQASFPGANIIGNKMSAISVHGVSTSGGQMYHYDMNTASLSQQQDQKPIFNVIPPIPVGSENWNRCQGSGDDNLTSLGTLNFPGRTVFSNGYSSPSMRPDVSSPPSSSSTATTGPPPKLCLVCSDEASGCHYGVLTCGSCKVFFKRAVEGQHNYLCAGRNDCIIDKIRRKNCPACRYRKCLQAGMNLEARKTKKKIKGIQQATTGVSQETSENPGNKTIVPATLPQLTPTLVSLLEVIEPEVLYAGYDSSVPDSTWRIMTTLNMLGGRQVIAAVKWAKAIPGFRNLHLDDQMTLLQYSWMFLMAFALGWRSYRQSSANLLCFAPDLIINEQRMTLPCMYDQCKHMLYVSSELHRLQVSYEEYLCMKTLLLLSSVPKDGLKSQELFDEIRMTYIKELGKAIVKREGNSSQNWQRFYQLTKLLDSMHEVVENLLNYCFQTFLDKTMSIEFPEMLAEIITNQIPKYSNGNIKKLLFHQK
Assay: GR Florescence Polarization Assay (PolarScreen Glucocorticoid Receptor Competitor Assay, Red)
Settings: Fluorescense polarization binding ranges; competition with fluorescent glucocorticoid, incubated overnight at 4° C.
Procedure, shortened: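 Competitive fluorescence polarization using fluorescent glucocorticoid tracer and human GR in kit buffer. Compounds serially diluted 1:4 in DMSO, incubated with tracer and GR overnight at 4 °C before polarization read.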

IC50 | Structure (SMILES)
1000 to 10000 nM | CCCOC[C@]1(O)CC[C@]2(Cc3ccccc3)c3ccc(C(=O)Nc4cccnc4C)cc3CCC[C@@H]2C1 [Example 99]
100 to 1000 nM | CC[C@@]1(O)CC[C@]2(Cc3ccccc3)c3ccc(C(=O)Nc4cccnc4C)cc3CCC[C@@H]2C1.CC[C@]1(O)CC[C@@]2(Cc3ccccc3)c3ccc(C(=O)Nc4cccnc4C)cc3CCC[C@H]2C1 [Example 13, (7aS,9S,11aS)-11a-benzyl-9-ethyl-9-hydroxy-6,7,7a,8,9,10,11,11a-octahydro-5H-dibenzo[a,c]cycloheptene-3-carboxylic acid (2-methyl-pyridin-3-yl)-amide; compound with (7aR,9R,11aR)-11a-benzyl-9-ethyl-9-hydroxy-6,7,7a,8,9,10,11,11a-octahydro-5H-dibenzo[a,c]cycloheptene-3-carboxylic acid (2-methyl-pyridin-3-yl)-amide]
< 100 nM | Cc1ncccc1NC(=O)c1ccc2c(c1)CCC[C@H]1C[C@](C)(O)CC[C@@]21Cc1ccccc1 (racemic) [Example 30, (7aS,9R,11aS)-11a-Benzyl-9-hydroxy-9-methyl-6,7,7a,8,9,10,11,11a-octahydro-5H-dibenzo[a,c]cycloheptene-3-carboxylic acid (2-methyl-pyridin-3-yl)-amide; compound with (7aR,9S,11aR)-11a-benzyl-9-hydroxy-9-methyl-6,7,7a,8,9,10,11,11a-octahydro-5H-dibenzo[a,c]cycloheptene-3-carboxylic acid (2-methyl-pyridin-3-yl)-amide]
1000 to 10000 nM | CCC[C@]1(O)CC[C@]2(CC)c3ccc(C(=O)Nc4cccnc4C)cc3COC[C@@H]2C1 (single isomer, unassigned) [Example 137]
> 10000 nM | O=C1CCCC[C@H]2CC3(CC[C@@]12Cc1ccccc1)OCCO3 (racemic) [Example 37, (4aS,9aS)-4a-benzyloctahydrospiro[benzo[7]annulene-2,2′-[1,3]dioxolan]-5(1H)-one; compound with (4aR,9aR)-4a-benzyloctahydrospiro[benzo[7]annulene-2,2′-[1,3]dioxolan]-5(1H)-one]
< 100 nM | CCOC[C@@]1(O)CC[C@@]2(Cc3ccccc3)c3ccc(C(=O)Nc4cccnc4C)cc3CCC[C@H]2C1 [Example 93]
< 100 nM | CC[C@@]1(O)CC[C@@]2(Cc3ccccc3)c3ccc(C(=O)Nc4ccncc4C)cc3CCC[C@H]2C1 [Example 70]
< 100 nM | CC[C@@]1(O)CC[C@@]2(Cc3ccccc3)c3ccc(C(=O)NC4=NC(=O)CN4C)cc3CCC[C@H]2C1 [Example 85]
100 to 1000 nM | CC[C@@]1(O)CC[C@@]2(CC)c3ccc(C(=O)Nc4cccnc4C)cc3COC[C@H]2C1 [Example 140]
100 to 1000 nM | O=C1CC[C@@]2(Cc3ccccc3)c3ccc(O)cc3CCC[C@@H]2C1.O=C1CC[C@]2(Cc3ccccc3)c3ccc(O)cc3CCC[C@H]2C1 [Example 5, (4aR,11bS)-11b-benzyl-9-hydroxy-1,2,4,4a,5,6,7,11b-octahydro-dibenzo[a,c]cyclohepten-3-one; compound with (4aS,11bR)-11b-benzyl-9-hydroxy-1,2,4,4a,5,6,7,11b-octahydro-dibenzo[a,c]cyclohepten-3-one]
< 100 nM | CC[C@@]1(O)CC[C@@]2(Cc3ccccc3)c3ccc(C(=O)Nc4ccc(-c5cn[nH]c5)nc4C)cc3CCC[C@H]2C1 [Example 88]
100 to 1000 nM | CC#C[C@]1(O)CC[C@@]2(Cc3ccccc3)c3ccc(O)cc3CCC[C@H]2C1 (racemic) [Example 28, (3S,4aS,11bS)-11b-Benzyl-3-prop-1-ynyl-2,3,4,4a,5,6,7,11b-octahydro-1H-dibenzo[a,c]cycloheptene-3,9-diol; compound with (3R,4aR,11bR)-11b-benzyl-3-prop-1-ynyl-2,3,4,4a,5,6,7,11b-octahydro-1H-dibenzo[a,c]cycloheptene-3,9-diol]
100 to 1000 nM | Cc1ncccc1NC(=O)c1ccc2c(c1)CCC[C@H]1CC(C)(O)CC[C@]21Cc1ccccc1 (stereo in doubt) [Example 91, (7aS,9R,11aR)-11a-benzyl-9-hydroxy-9-methyl-6,7,7a,8,9,10,11,11a-octahydro-5H-dibenzo[a,c]cycloheptene-3-carboxylic acid (2-methyl-pyridin-3-yl)-amide]
< 100 nM | CC[C@@]12CC[C@](O)(CC3CC3)C[C@@H]1CCCc1cc(C(=O)Nc3cccnc3C)ccc12 [Example 51]
